Measured values: patent EP0497303B1, “Carbamic acid derivatives and method for preparing the same” (KYORIN PHARMACEUTICAL CO., LTD., priority 1991, dated 1992)

System: amnesia induced by exposure to carbon dioxide gas
Assay: Action against amnesia induced by exposure to carbon dioxide gas (step-through passive avoidance)
Format: in vivo, Std: ddy strain male mice
Details: for Reaction latency(sec) Mean±S.E: orally immediately after exposure to carbon dioxide gas and one hour before retention trial, retention trial after 24 hours, maximum 300 seconds; for Rate of improvement (%): orally, relative to CO2 treated and non-treated groups
Text: The apparatus used was a passive avoidance apparatus of a step-through type (made by O'Hara Co., Ltd.). In the aquisition trial, each mouse was placed in the light compartment, a guillotine door of partition thereof was opened after 10 seconds, the guillotine door was closed as soon as the mouse moved into the dark compartment and an electric shock of 33 - 50 v was given for 1 second through the metal grid bars of the floor. Immediately after the electric shock was given, the mouse was taken out and was accommodated in a container having volume of ca. 300 ml filled with carbon dioxide gas. After immediately exposed to carbon dioxide gas having flow rate of ca. 5 liter/min. for 25 - 45 seconds, the mouse was taken out and was reanimated by artificial breathing. The retention trial was carried out after 24 hours. In the retention trial, the mouse was again placed in the light compartment, the time till the movement to the dark compartment was measured as a reaction latency until maximum 300 seconds and the mouse showing latency beyond it was deemed as 300 seconds. In addition, immediately after aquisition trial, a group not to exposed to carbon dioxide gas (comparison group of non-amnesia) was also made. The mouse was grouped per 10 - 30, the subject medicament was orally administered immediately after exposed to carbon dioxide gas and one hour before the retention trial. Rate of improvement =(Latency of CO2 -drug treated group - Latency of carbon dioxide exposed group)/(Latency of non-dementia group - Latency of carbon dioxide exposed group)x 100 [formula]

## CN1CCCC(OC(=O)Nc2ccccc2)C1 (centres unmarked) [Compound A, 3-(1-methylpiperidinyl) phenylcarbamate]
Dose 100 mg/kg
  Reaction latency(sec) Mean±S.E: 175.3 ± 36.7 s
  Rate of improvement (%): 15.2%

## O=C(Nc1ccc(Cl)cc1)OC1CCN(c2ccncc2)CC1 [Example 2]
Dose 10 mg/kg
  Reaction latency(sec) Mean±S.E: 150.7 ± 27.1 s
  Rate of improvement (%): 42.9%
Dose 30 mg/kg
  Reaction latency(sec) Mean±S.E: 231.2 ± 19.0 s
  Rate of improvement (%): 76.8%

## O=C(Nc1ccc(Cl)cc1)OC1CCCN(c2ccncc2)C1 (centres unmarked) [Example 49]
Dose 10 mg/kg
  Reaction latency(sec) Mean±S.E: 154.0 ± 27.2 s
Dose 30 mg/kg
  Reaction latency(sec) Mean±S.E: 183.7 ± 26.3 s
  Rate of improvement (%): 45.3%

## C1=Cc2cccc(OCC3CNCCO3)c2C1 (centres unmarked) [Indeloxazine]
Dose 40 mg/kg
  Reaction latency(sec) Mean±S.E: 219.3 ± 17.8 s
  Rate of improvement (%): 30.1%
Summary in words of Table 1
  improving activity to disturbance of memory: vitiated or not enough

## COC(=O)C1=C(C)NC(C)=C(C(=O)OCCN(C)Cc2ccccc2)C1c1cccc([N+](=O)[O-])c1 (centres unmarked) [Nicardipine]
Dose 5 mg/kg
  Reaction latency(sec) Mean±S.E: 92.9 ± 28.1 s
  Rate of improvement (%): -59.8%
